These results are taken from patent publication US20230201166A1, “METHODS FOR TREATING CANCER BY INHIBITING CARM1” (DANA-FARBER CANCER INSTITUTE, INC., priority 2020, published 2023).

One experiment concerns B16F10 tumor cells. Kind of experiment: dsDNA damage, γH2AX immunofluorescence. The experiment is classed as cell-based, murine. The note with it: B16F10 melanoma cells. The protocol:
Representative immunofluorescence images (left) of γH2AX antibody labeling (purple); nuclei labeled with DAPI. Quantification of number of γH2AX foci/nucleus (right). Data are shown as mean±SEM, ***p<0.001, by unpaired two-sided Mann-Whitney test. Scale bar—[…].
Cells were grown on glass coverslips, washed with PBS and fixed in 4% paraformaldehyde in PBS for 20 min at room temperature. Cells were permeabilized in 0.2% Triton X-100 for 15 min before blocking for 30 min with 10% serum-containing blocker (ThermoFisher). Coverslips were then incubated with primary antibody overnight […] in a humidified chamber, followed by incubation with a secondary antibody for 1 hour. Primary and secondary antibodies were diluted in blocking buffer, and […]. Coverslips were mounted using Prolong Gold Antifade Mounting Medium with DAPI (ThermoFisher). Imaging was performed using a Hamamatsu ORCA-Flash4.0 V3 Digital CMOS camera and Nikon Ti-E Motorized Microscope 2000U microscope with Plan Apo Lamda 60×/1.40 Oil Ph3 DM objectives. Images were captured with Nikon Elements Acquisition Software. All scoring was performed under blinded conditions. Three independent experiments with three biological replicates per group were performed.

A further experiment concerns B16F10 cells. In words: RT-qPCR of interferon stimulated genes in B16F10 cells. The experiment is classed as cell-based, murine. Particulars: 0.1-1 μM, 7 days. Here is the method:
Total RNA was extracted using the RNeasy Mini Kit (Qiagen) according to the manufacturer's protocol. Extracted RNA (1 μg) was transcribed into cDNA using SuperScript IV VILO master mix with ezDNase enzyme according to the manufacturer's protocol (ThermoFisher). The cDNA samples were diluted and used for real-time quantitative PCR (RT-qPCR). Taqman master mix (ThermoFisher) and gene-specific primers were used for PCR amplification and detection using a QuantStudio 6 Flex Real-Time PCR System (ThermoFisher). The RT-qPCR data were normalized to GAPDH and HPRT (housekeeping genes) and presented as fold change of gene expression in the test sample compared to the control sample.
(In general: In qPCR the cycle at which signal appears reflects the starting amount.)

For experiment [1], the system named is malignant melanoma xenograft model. Particulars: oral dosing; cited from earlier work.
The next experiment deals with B16F10 melanomas. In words: Flow cytometry of tumor-infiltrating immune cells, B16F10 melanomas treated with CARM1 inhibitor. The experiment is classed as in vivo, mouse. From the text:
FIG. 15A illustrates changes in tumor microenvironment induced by monotherapy or combination therapy with CARM1 inhibitor, showing treatment of mice with B16F10 melanomas with CARM1 inhibitor or vehicle control. Mice also received isotype control, CTLA-4 or PD-1 mAbs, as indicated (n=5 mice/group). Representative flow plots of CD8 T cells gated on live/singlets/CD45+/CD3+ cells from indicated groups are shown on left. Quantification of CD8 T cells is shown as percentage of CD3+ T cells (middle) or number per gram of tumor (right) for the indicated treatment groups.
FIG. 15B illustrates changes in tumor microenvironment induced by monotherapy or combination therapy with CARM1 inhibitor, showing number of intra-tumoral granzyme B+CD8+ T cells per gram of tumor for the indicated treatment groups (n=5 mice/group). Representative flow plots are shown on left.
FIG. 15C illustrates changes in tumor microenvironment induced by monotherapy or combination therapy with CARM1 inhibitor, showing number of intra-tumoral IL2+CD8+ T cells per gram of tumor for the indicated treatment groups (n=5 mice/group).
FIG. 15D illustrates changes in tumor microenvironment induced by monotherapy or combination therapy with CARM1 inhibitor, showing number of intra-tumoral IFNγ+CD8+ T cells per gram of tumor for the indicated treatment groups (n=5 mice/group). Representative flow plots are shown on left.
FIG. 15E illustrates changes in tumor microenvironment induced by monotherapy or combination therapy with CARM1 inhibitor, showing number of intra-tumoral perforin+CD8+ T cells per gram of tumor for the indicated treatment groups (n=5 mice/group).
FIG. 15F illustrates changes in tumor microenvironment induced by monotherapy or combination therapy with CARM1 inhibitor, showing analysis of intra-tumoral PD1+CD8+ T cells (quantified as percentage of CD8+ T cells) for the indicated treatment groups (n=5 mice/group). Representative flow plots (left) and quantification of PD-1 expression as percentage of CD8 T cells (middle) or MFI (right) are shown.
FIG. 16A illustrates changes in tumor microenvironment induced by monotherapy or combination therapy with CARM1 inhibitor, showing treatment of mice with B16F10 melanomas with CARM1 inhibitor or vehicle control. Mice also received isotype control, CTLA-4 or PD-1 mAbs, as indicated (n=5 mice/group). Quantification of CD4+ T cells (number per gram of tumor) for the indicated treatment groups.
FIG. 16B illustrates changes in tumor microenvironment induced by monotherapy or combination therapy with CARM1 inhibitor, showing quantification of IFNγ+ cells (as percentage of CD4+ T cells) for the indicated treatment groups.
FIG. 16C illustrates changes in tumor microenvironment induced by monotherapy or combination therapy with CARM1 inhibitor, showing quantification of FoxP3+ Treg cells (as percentage of CD4+ T cells) for the indicated treatment groups.
FIG. 16D illustrates changes in tumor microenvironment induced by monotherapy or combination therapy with CARM1 inhibitor, showing quantification of the CD8/FoxP3 Treg ratio for the indicated treatment groups.
FIG. 16E illustrates changes in tumor microenvironment induced by monotherapy or combination therapy with CARM1 inhibitor, showing number of intra-tumoral NK cells (left), dendritic cells (live, singlet, CD45+CD3−F4/80-CD11c+ MHCII^hi) (middle) and macrophages (live, singlet, CD45+CD3−F4/80+) (right) calculated per gram of tumor.
Inhibitor treatment was performed for 14 days because limited quantities of the compound were available.
Tumors were excised on day 18 following tumor cell inoculation and cut into small pieces using sterile scalpels in serum-free RPMI 1640 media (ThermoFisher #11875093). […]
(A flow cytometer gives signals particle by particle.)

Where [2] appears, read: all three CARM1 inhibitor treatment groups.
Setting [3] is: combined with PD-1 or CTLA-4 mAbs.

“Also recorded” adds a separate entry of the source.

On to `CNC[C@@H](O)COc1ccc(Cl)c(-c2nc(-c3c(C)noc3C)c(C)c(N3CC4(CCN(C(=O)OC)CC4)C3)n2)c1` (stereo in doubt) [EZM2302], for which the γH2AX foci result in the experiment with B16F10 tumor cells is “induced γH2AX foci accumulation”. The “interferon stimulated gene (ISG) expression / mRNA levels” value in the experiment with B16F10 cells is on record as “induced up regulation of the ISGs expression; also recorded: significantly increased the mRNA levels of these ISGs”. Moreover, in experiment [1], the anti-tumor activity result is on record as “anti-tumor activity” and the “in vivo CARM1 inhibition” value is on record as “dose-dependent in vivo CARM1 inhibition”. Further, in the experiment on B16F10 melanomas (setting [2]), the “number of CD8 T cells (per gram of tumor) that expressed granzyme B, IL-2, IFNγ, and perforin” value is “striking increase”; the “tumor-infiltrating NK cells” value is recorded as “increased”. Also, the macrophage numbers result in the experiment on B16F10 melanomas (any of the treatment groups) is “no changes in macrophage numbers”. In addition, in the experiment on B16F10 melanomas (setting [3]), the “CD8 T cell infiltration” value was “even higher”, the cDC1 cells entry was “increased” and the “tumor-infiltrating NK cells” value was “highest”. Besides, the “PD-1 expression by CD8 T cells” value in the experiment with B16F10 melanomas (compared to vehicle control group) is on record as “reduced”. Further, the “CD8 T cell infiltration” value in the experiment on B16F10 melanomas (monotherapy) is recorded as “substantially increased”. Moreover, the “number of tumor-infiltrating CD4 T cells or FoxP3+ Tregs” value with B16F10 melanomas (mouse, in vivo) is recorded as “did not change”.
